12 compounds from ChEMBL document CHEMBL1201862, “PubChem BioAssay data set” (2004) can be followed below.

Calls of active or inactive are those of the source.

The target of test [1] is Transitional endoplasmic reticulum ATPase (Homo sapiens, UniProt P55072, C522A). As to the kind of experiment: C522A mutant p97 ATPase inhibitors, dose response, counter-screen for p97 inhibitor project, biochemical, luminescence (AID 1544). In general terms: A counterscreen serves to expose hits that act by an unwanted route or on another target.
In test [2] the target is Transitional endoplasmic reticulum ATPase (Homo sapiens, UniProt P55072). Nature of the test: p97 ATPase inhibitors, dose response, biochemical (AID 1534).
The next test deals with Wee1-like protein kinase (Homo sapiens, UniProt P30291). Nature of the test: Dose Response Cell-based Assay for Inhibitors of Wee1 Degradation. [Related pubchem assays: 1410, 1321 ]. The test is classed as functional.
For test [3], the target named is G2/mitotic-specific cyclin-B1 (Homo sapiens, UniProt P14635). As to the kind of experiment: Counterscreen assay for inhibitors of Wee1 degradation: dose response cell-based assay to identify inhibitors of cyclin B degradation. [Related pubchem assays: 1410, 1321 ]. The format is functional.
Test [4] is described as follows: Counterscreen for IDE inhibitors: Luminescence-based cell-based high throughput dose response assay to identify compounds that are cytotoxic to HEK cells. [Related pubchem assays: 434962 (Primary screen (IDE inhibitors in singlicate)), 449730 (Counterscreen (Cytotoxicity in triplicate)), 435028 (Confirmation (IDE inhibitors in triplicate)) …. The test is classed as functional. Particulars: HEK293.

Another test addresses T1, Insulin-degrading enzyme (Homo sapiens, UniProt P14735).
T1 sequence (P14735 whole entry): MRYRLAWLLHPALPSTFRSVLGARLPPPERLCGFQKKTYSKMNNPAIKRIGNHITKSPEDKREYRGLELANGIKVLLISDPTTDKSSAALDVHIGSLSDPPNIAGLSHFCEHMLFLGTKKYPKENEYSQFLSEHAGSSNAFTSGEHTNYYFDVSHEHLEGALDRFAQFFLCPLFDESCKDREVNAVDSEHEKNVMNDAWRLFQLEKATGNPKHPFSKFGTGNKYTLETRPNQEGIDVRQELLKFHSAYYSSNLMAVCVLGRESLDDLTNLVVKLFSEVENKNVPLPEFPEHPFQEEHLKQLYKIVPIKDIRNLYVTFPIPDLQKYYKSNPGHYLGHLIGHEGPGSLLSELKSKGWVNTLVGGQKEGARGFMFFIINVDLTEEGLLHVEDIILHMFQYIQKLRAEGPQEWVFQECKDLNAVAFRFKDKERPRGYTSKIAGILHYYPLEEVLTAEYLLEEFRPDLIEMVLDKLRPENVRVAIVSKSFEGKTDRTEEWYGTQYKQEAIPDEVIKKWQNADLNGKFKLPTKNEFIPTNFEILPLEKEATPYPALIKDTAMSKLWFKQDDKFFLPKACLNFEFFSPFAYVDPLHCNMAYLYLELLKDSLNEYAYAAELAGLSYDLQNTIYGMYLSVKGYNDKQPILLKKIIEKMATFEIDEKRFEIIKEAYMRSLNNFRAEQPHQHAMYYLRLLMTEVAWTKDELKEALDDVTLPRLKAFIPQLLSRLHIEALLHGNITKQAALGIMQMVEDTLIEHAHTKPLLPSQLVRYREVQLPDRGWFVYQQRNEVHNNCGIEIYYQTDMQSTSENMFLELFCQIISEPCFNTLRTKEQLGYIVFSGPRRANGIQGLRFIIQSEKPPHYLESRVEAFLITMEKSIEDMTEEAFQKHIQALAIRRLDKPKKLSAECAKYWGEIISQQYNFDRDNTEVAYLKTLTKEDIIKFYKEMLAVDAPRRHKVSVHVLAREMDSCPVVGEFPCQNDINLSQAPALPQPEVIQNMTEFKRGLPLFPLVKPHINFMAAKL
Nature of the test: Dose Response: Fluorescence polarization-based cell-based high throughput dose response assay for inhibitors of insulin-degrading enzyme (IDE). [Related pubchem assays: 434962 (Primary screen (IDE inhibitors in singlicate)), 449730 (Counterscreen (Cytotoxicity in triplicate)), 435028 (Confirmation (IDE inhibitors in triplicate)), 434984 (Summary …. The test is classed as functional. (In general: Polarisation of emitted light reports the rotation of a fluorescent probe.)

The target of test [5] is T2, Eukaryotic translation initiation factor 2-alpha kinase 3 (Homo sapiens, UniProt Q9NZJ5). Nature of the test: Counterscreen assay for PERK inhibitors: Dose response cell-based high throughput screening assay to measure inhibition of PERK at 6 hours. [Related pubchem assays: 1522, 1416 ]. The test is classed as functional.
In test [6] the target is T2, Eukaryotic translation initiation factor 2-alpha kinase 3. As to the kind of experiment: Dose response cell-based high-throughput screening assay to measure PERK inhibition. [Related pubchem assays: 1416 ]. The format is functional.
The next test has as its system Staphylococcus aureus. Nature of the test: Inhibitors of Bacterial Quorum Sensing Structure Activity Relationship (SAR) Analysis: Dose Response Assay. [Related pubchem assays: 700, 527 ]. The test is classed as functional, organism-based.
Test [7] concerns the target Heat shock cognate 71 kDa protein (Homo sapiens, UniProt P11142). As to the kind of experiment: In Vitro Hsc70 Dose Response Fluorescence Polarization Assay. [Related pubchem assays: 1072 ].
Test [8] deals with Glyceraldehyde-3-phosphate dehydrogenase (Homo sapiens, UniProt P04406).
In test [9] the target is Heat shock 70 kDa protein 1A (Homo sapiens, UniProt P0DMV8). Nature of the test: inhibition of Hsp70 binding activity – biochemical, fluorescence polarization, SAR follow-up (AID 1072).
The target of test [10] is Eukaryotic translation initiation factor 4H (Homo sapiens, UniProt Q15056). As to the kind of experiment: eIF4H binding inhibition – biochemical, uHTS, fluorescence polarization, translation initiation inhibitor project, primary screen (AID 2012).
Test [11] addresses Polyadenylate-binding protein 1 (Homo sapiens, UniProt P11940). As to the kind of experiment: blockers of PABP interaction with poly(A) – biochemical, fluorescence polarization, […] (AID 2014).
Test [12] in a line: luciferase reporter signal suppression in cells – H4 neuroglioma cells, luminescence, dose response (AID 1990). The format is functional, cell-based. (In general: A reporter such as luciferase makes a cellular process visible.)
The nature of test [13]: alpha-synuclein stem-loop luciferase translation blockers – H4 neuroglioma cells, luminescence, confirmation (AID 1988). The format is functional, cell-based.
A further test is described as follows: cells. The format is functional, cell-based.
Test [14] is described as follows: alpha-synuclein stem-loop translation blockers – luminescence, H4 neuroglioblastoma cells, dose confirmation, confirmation (AID 2454).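 Note: H4 neuroglioblastoma cells carrying an alpha-synuclein 5'UTR luciferase reporter; potency for inhibition of the luciferase signal.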 The format is functional, cell-based.
The nature of test [15]: luciferase reporter signal reduction – luminescence, H4-C neuroglioblastoma cells, dose response (AID 2458).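 Note: H4 neuroglioblastoma cells stably carrying a luciferase reporter gene fusion.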 The test is classed as functional, cell-based.
The target in test [16] is T3, E3 ubiquitin-protein ligase XIAP (Homo sapiens, UniProt P98170). Nature of the test: Counter Screen using XIAP-Bir3 for Chemical Antagonists of Bir1/2 domains of IAP-family anti-apoptotic proteins. [Related pubchem assays (depositor defined):AID1018, AID1449, AID1514, AID1638, AID1749, AID1750, AID488957, AID488963].
For test [17], the target named is Peroxisome proliferator-activated receptor gamma/Nuclear receptor corepressor 2 (Homo sapiens, UniProt P37231+Q9Y618). The format is functional.
Test [18] has as its target T3, E3 ubiquitin-protein ligase XIAP. Nature of the test: small molecules displacing peptide from XIAP – biochemical, IAP family, fluorescence polarization (AID 1018). The format is functional.
The target of test [19] is Photoreceptor-specific nuclear receptor (Homo sapiens, UniProt Q9Y5X4). The test is classed as functional.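 Note: potency for compounds that break the NR2E3 corepressor complex and count as activators.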
A further test has as its target Chaperone protein dnaK (Escherichia coli, UniProt C3TRK2). Nature of the test: E. coli DnaK binders, calorimetric Kd – biophysical, isothermal titration calorimetry, beta-domain, full-length DnaK, orthogonal assay for DnaK modulator project, SAR follow-up (AID 1495).
The next test deals with Cytochrome P450 2D6 (Homo sapiens, UniProt P10635). Nature of the test: qHTS Assay for Inhibitors and Substrates of Cytochrome P450 2D6. [Related pubchem assays: 410 ]. The test is classed as ADME. To be noted: read-out: Potency.
For another test, the target named is T4, Estrogen receptor (Homo sapiens, UniProt P03372).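 Note: potency for inhibiting coactivator peptide recruitment to the receptor.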
T4 sequence (P03372 whole entry): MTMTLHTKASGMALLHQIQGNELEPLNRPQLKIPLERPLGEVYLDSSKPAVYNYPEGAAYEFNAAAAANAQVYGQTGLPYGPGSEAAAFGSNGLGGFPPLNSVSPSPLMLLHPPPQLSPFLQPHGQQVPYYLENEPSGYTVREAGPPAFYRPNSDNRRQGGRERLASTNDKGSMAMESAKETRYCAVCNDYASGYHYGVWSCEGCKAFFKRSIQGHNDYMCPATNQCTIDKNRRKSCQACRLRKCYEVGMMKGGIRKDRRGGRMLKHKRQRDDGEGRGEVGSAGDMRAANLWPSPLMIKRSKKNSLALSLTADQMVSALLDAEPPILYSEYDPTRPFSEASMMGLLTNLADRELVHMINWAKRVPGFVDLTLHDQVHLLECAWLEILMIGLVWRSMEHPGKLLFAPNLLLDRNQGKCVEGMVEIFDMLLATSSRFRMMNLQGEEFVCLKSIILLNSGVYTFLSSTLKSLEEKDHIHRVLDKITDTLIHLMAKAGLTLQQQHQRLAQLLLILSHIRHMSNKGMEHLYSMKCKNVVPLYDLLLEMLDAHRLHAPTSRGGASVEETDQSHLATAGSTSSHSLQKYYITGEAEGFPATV

The nature of test [20]: A Cell Based Secondary Assay To Explore Cytotoxicity of Compounds that Sensitize Mycobacterium Tuberculosis to Beta-Lactam Antibiotics. The format is functional.

T2 sequence (Q9NZJ5 whole entry): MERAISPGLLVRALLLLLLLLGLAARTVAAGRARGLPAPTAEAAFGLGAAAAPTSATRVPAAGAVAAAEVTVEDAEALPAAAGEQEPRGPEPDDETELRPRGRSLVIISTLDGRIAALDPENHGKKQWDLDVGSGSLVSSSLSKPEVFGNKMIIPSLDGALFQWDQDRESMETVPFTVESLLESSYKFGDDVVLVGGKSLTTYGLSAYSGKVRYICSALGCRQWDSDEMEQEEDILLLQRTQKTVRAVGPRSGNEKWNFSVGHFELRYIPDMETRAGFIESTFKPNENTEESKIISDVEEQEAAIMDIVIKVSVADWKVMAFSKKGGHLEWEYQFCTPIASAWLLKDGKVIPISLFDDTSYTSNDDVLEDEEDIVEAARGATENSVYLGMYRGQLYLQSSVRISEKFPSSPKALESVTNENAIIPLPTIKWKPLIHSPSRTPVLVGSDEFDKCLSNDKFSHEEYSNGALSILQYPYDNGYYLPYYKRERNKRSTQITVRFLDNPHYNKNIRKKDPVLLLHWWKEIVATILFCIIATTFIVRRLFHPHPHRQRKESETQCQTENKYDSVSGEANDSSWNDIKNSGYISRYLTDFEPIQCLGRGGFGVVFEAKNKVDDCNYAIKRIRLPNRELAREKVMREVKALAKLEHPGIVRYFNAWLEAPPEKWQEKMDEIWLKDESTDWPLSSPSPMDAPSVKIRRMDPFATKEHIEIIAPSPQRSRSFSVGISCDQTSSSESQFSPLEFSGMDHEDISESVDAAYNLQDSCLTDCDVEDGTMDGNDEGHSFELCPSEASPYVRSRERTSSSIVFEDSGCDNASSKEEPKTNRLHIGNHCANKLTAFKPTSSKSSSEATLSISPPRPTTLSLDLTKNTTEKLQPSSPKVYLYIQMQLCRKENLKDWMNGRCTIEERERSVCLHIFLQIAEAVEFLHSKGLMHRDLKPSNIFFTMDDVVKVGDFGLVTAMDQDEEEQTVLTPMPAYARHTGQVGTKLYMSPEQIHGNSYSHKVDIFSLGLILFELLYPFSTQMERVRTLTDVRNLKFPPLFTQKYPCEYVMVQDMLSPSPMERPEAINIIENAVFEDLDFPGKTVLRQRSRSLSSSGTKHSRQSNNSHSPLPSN
T3 sequence (P98170 whole entry): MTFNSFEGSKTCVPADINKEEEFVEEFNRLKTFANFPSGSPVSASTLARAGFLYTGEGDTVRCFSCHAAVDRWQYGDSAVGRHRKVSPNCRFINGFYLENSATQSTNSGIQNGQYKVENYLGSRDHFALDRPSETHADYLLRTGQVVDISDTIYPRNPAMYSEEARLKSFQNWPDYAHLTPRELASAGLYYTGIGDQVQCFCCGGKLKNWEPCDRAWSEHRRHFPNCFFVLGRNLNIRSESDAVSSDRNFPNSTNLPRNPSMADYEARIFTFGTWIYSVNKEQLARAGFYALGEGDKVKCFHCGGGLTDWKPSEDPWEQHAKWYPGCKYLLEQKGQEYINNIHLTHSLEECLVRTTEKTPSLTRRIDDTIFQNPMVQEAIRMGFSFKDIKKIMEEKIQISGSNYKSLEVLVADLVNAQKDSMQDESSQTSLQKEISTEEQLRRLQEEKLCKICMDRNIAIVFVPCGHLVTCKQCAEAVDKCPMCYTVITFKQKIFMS
Chaperone protein dnaK, sequence (C3TRK2 whole entry): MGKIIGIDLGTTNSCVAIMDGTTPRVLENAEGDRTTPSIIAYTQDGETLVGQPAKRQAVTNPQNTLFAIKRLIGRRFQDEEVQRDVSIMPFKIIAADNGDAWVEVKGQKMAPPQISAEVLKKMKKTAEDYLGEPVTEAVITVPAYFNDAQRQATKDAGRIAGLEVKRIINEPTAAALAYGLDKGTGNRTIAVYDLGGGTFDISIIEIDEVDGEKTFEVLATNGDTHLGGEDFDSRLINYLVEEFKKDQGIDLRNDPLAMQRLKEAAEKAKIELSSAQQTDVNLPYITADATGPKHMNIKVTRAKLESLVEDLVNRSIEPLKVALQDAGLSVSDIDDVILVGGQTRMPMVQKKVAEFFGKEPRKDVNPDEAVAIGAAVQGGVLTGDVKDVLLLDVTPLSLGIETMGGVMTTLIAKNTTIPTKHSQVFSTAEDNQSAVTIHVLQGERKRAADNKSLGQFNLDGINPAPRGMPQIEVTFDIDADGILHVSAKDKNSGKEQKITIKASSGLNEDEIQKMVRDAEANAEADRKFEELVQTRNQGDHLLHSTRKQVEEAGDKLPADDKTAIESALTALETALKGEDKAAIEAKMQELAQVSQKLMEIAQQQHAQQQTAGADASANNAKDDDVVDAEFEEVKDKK
Polyadenylate-binding protein 1, sequence (P11940 whole entry): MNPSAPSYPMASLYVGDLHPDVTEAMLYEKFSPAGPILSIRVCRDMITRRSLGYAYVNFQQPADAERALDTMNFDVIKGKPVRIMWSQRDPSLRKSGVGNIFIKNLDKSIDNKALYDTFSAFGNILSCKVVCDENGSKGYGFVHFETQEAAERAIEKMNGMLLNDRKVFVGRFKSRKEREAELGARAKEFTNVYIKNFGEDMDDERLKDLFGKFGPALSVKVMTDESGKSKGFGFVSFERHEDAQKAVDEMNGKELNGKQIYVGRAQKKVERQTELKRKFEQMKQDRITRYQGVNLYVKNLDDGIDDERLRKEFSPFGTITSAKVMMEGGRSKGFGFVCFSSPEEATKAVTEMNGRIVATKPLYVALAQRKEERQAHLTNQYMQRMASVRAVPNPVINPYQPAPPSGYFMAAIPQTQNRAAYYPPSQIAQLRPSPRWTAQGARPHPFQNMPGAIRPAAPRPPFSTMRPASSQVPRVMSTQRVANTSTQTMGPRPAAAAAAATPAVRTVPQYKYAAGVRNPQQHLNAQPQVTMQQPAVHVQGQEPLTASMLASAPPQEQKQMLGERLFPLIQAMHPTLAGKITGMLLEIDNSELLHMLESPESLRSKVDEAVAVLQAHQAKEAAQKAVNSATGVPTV
Glyceraldehyde-3-phosphate dehydrogenase, sequence (P04406 whole entry): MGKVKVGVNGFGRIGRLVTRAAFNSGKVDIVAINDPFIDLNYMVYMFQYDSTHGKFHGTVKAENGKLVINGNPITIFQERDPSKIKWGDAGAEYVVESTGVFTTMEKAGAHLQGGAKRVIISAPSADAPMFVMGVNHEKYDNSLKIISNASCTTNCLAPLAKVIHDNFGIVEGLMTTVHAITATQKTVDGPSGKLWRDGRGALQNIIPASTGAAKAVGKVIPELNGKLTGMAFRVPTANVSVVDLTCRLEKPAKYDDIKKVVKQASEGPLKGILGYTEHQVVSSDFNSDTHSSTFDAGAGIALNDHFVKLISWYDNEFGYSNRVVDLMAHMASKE
Photoreceptor-specific nuclear receptor, sequence (Q9Y5X4 whole entry): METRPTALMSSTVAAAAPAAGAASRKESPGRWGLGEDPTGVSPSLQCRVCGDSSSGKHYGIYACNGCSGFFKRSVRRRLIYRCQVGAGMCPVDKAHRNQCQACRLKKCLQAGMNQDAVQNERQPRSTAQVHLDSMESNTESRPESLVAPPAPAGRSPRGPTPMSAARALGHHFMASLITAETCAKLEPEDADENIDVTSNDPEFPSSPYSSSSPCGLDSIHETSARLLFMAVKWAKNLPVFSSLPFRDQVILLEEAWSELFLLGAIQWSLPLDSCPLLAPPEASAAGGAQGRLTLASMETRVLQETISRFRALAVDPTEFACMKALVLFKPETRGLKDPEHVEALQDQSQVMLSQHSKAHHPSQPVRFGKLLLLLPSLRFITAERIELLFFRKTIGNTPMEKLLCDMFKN
Heat shock 70 kDa protein 1A, sequence (P0DMV8 whole entry): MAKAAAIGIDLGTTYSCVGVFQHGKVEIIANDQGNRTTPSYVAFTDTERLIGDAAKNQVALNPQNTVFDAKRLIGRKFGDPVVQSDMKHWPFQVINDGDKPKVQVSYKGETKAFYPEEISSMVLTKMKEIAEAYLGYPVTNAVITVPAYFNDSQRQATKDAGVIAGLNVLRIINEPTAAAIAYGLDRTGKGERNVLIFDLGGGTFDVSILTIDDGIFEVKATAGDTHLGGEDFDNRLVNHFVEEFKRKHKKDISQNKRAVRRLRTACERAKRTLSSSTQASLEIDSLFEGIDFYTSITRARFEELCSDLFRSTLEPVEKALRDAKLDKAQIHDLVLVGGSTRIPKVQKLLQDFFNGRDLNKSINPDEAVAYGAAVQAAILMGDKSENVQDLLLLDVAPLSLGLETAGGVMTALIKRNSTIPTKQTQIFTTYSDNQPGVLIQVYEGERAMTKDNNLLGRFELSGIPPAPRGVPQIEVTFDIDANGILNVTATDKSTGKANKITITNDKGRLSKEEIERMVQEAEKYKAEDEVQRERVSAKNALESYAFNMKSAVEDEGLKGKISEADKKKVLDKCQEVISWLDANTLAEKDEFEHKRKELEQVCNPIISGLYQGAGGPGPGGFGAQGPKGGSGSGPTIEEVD
G2/mitotic-specific cyclin-B1, sequence (P14635 whole entry): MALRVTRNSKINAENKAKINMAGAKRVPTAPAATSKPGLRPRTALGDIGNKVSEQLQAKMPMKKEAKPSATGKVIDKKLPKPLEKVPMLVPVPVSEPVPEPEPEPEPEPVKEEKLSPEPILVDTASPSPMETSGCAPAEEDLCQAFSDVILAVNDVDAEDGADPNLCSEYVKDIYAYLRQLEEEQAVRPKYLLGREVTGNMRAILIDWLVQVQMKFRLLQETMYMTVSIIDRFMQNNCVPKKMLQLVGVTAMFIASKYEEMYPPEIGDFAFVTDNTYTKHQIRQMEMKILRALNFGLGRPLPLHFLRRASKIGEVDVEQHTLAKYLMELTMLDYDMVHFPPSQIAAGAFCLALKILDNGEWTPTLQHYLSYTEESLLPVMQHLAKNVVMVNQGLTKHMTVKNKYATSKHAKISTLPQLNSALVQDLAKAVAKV

For the compound `COC(=O)c1ccccc1NC(=S)NC(=O)c1ccccc1C`, the IC50 in test [1] and in test [2] was > 50 µM (not active) each time.
Regarding `O=C(COc1ccc(C(=O)c2ccc(F)cc2)cc1)NCc1ccc(F)cc1`, the concentration for a half-maximal effect (EC50) (on Wee1-like protein kinase; in test [3]) was > 49.7 µM (not active) throughout.
For `CCOc1ccccc1-n1c(SCC(=O)N2CCCc3ccccc32)nnc1-c1cccnc1`, the results for the IC50 (in test [4]; against Insulin-degrading enzyme) were 24.8 µM (not active) and > 55.9 µM (not active), respectively.
Consider `CCC(C(=O)Nc1cccc(C(=O)O)c1C)c1ccccc1` (configuration not stated), for which the EC50 in [5] and in [6] was > 55.7 µM (not active) each time.
For `O=C(Nc1ccc2c(c1)OCO2)C(c1ccccc1)N1CCCCC1` (configuration not stated), the IC50 in the test on Staphylococcus aureus was 1.26 µM (active).
Turning to `O=C(Nc1ccc2c(c1)C1C=CCC1C(C(=O)O)N2)c1ccc(Cl)cc1Cl` (configuration not stated), the IC50 in test [7], in [8] and in test [9] was > 100 µM (not active) in each case.
On to `CC(C)C(OC(=O)c1ccco1)C(=O)NCc1ccco1` (configuration not stated), for which the IC50 in [10] is 58 µM (active); in test [11], > 100 µM (inactive).
As to `O=Cc1cn(Cc2ccc(F)cc2)c2ccccc12`, the EC50 in test [12] is 7.56 µM (active); in [13], < 0.1 µM (active); in “cells”, 1.05 µM (active); in [14], > 12 µM (inconclusive); in test [15], 1.85 µM (active).
With `Cc1cccc(-n2c(=S)[nH]c3c(oc4ccccc43)c2=O)c1`, the IC50 in [16] was > 100 µM (inactive); in [17], 6.64 µM (active); in test [18] it was > 100 µM (not active); in test [19], 5.11 µM (active).
As for `O=C(NCc1cc(Cl)cc(Cl)c1)c1cccs1`, at Chaperone protein dnaK, the equilibrium dissociation constant (Kd) was 2.8 µM (active).
Regarding `CCN1CCC[C@@H]1CNC(=O)c1cc(S(N)(=O)=O)ccc1OC`, on Cytochrome P450 2D6, the AC50 is 39.8 µM (inconclusive).
In the case of `COC(=O)/C(=C\Nc1ccc(Cl)c2ccccc12)c1ncc(C(F)(F)F)cc1Cl`, the IC50 against Estrogen receptor is given as > 50 µM (not active). Moreover, the CC50 in test [20] is > 40 µM (active).

By IC50 is commonly meant the midpoint of a concentration-inhibition curve. Broadly, the EC50 is the concentration giving half of the maximal effect. For orientation: Kd means a measure of binding affinity in units of concentration. By CC50 is commonly meant the concentration giving 50% cytotoxicity.
